Experimental data reported in ChEMBL document CHEMBL1201862, “PubChem BioAssay data set” (2004).
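Five concentrations, 48 hours, 96-well plates. GI50 = concentration required for 50% inhibition of growth.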 Calls of active or inactive are those of the source. No stated cut-off is given here; in the data, active = GI50 up to about 1.1 µM and inactive = higher.

Columns and labels:
Test in all cases: inhibition of tumour cell growth, NCI panel, 48 h
[1] = test system: TK-10
[2] = test system: SNB-19
[3] = test system: A549
[4] = test system: IGROV-1
[5] = test system: HCT-116
[6] = test system: UO-31
[7] = test system: SF-539
[8] = test system: MOLT-4
[9] = test system: OVCAR-3
[10] = test system: OVCAR-8
[11] = test system: HL-60
[12] = test system: SW-620
[13] = test system: M14
[14] = test system: CCRF-CEM
[15] = test system: UACC-257

Measured: GI50

COc1ccc(C[C@]23CCC(=O)N2CCc2cc(OC)c(O)cc23)cc1O
inactive: [1] > 100 µM | [2] > 100 µM | [3] > 100 µM | [4] > 100 µM | [5] > 100 µM | [6] > 100 µM | [7] > 100 µM | [8] > 100 µM | [9] > 100 µM | [10] 30 µM | [11] > 100 µM | [12] > 100 µM | [13] > 100 µM | [14] > 100 µM | [15] > 100 µM

CC1=C(C(=O)Nc2cc(F)c(F)cc2F)C(c2cccc([N+](=O)[O-])c2)C(C(=O)Nc2ccccc2C(F)(F)F)=C(C)N1 (stereo not given)
inactive: [1] 31.8 µM | [2] 30.7 µM | [3] 26.8 µM | [4] 23.5 µM | [6] 12.3 µM | [7] 20.7 µM | [8] 12.5 µM | [9] 16.8 µM | [10] 27 µM | [11] 14.6 µM | [12] 31 µM | [13] 22.8 µM | [14] 17.5 µM | [15] 23.4 µM

CC(=O)c1ccc2c(ccc(=O)n2C)c1
inactive: [1] > 100 µM | [2] > 100 µM | [3] > 100 µM | [4] > 100 µM | [5] > 100 µM | [7] > 100 µM | [8] > 100 µM | [9] > 100 µM | [10] > 100 µM | [11] > 100 µM | [12] > 100 µM | [13] > 100 µM | [14] > 100 µM

NC1=NN(c2ccccc2)C(=O)C1/C(=N\NC(=O)c1cc2ccccc2cc1O)C(=O)Nc1cccc(C(F)(F)F)c1 (stereo not given)
inactive: [1] > 100 µM | [2] 75 µM | [3] 37.2 µM | [4] 27.8 µM | [5] 25.4 µM | [6] 32.8 µM | [8] 16.3 µM | [9] 25.7 µM | [10] 24.1 µM | [11] 6.65 µM | [12] 34.7 µM | [13] 28.7 µM | [14] 7.06 µM | [15] 26.4 µM

Nc1cccc(S(=O)(=O)NCC(=O)O)c1
inactive: [1] > 100 µM | [2] > 100 µM | [3] > 100 µM | [4] > 100 µM | [5] > 100 µM | [6] 73.5 µM | [7] > 100 µM | [8] > 100 µM | [9] > 100 µM | [10] > 100 µM | [12] > 100 µM | [13] > 100 µM | [14] > 100 µM | [15] > 100 µM
